Measured values taken from ChEMBL document CHEMBL1122012, “Adenosine receptors: targets for future drugs” (J Med Chem, 1982).
The source made the active and inactive calls. The calls are words filed in the database; no cut-off is given here.

What was measured:
[1] = target: T1, Adenosine A2 receptor (Homo sapiens) (UniProt P29275+P29274); conditions: brain
Adenosine receptor A1 = target: T2, Adenosine receptor A1 (Bos taurus, UniProt P28190)
T2 sequence (P28190 whole entry): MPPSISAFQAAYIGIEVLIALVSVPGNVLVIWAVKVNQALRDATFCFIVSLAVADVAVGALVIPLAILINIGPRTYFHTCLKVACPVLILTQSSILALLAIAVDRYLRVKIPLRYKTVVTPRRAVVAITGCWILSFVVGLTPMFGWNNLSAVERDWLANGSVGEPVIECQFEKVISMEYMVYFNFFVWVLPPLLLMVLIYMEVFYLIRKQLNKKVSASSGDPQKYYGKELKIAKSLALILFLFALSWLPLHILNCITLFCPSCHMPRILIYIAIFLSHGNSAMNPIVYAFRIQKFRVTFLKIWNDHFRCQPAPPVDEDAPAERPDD

[2] = target: T3, Adenosine receptor A1 (Homo sapiens) (UniProt P30542); conditions: brain
T3 sequence (whole entry): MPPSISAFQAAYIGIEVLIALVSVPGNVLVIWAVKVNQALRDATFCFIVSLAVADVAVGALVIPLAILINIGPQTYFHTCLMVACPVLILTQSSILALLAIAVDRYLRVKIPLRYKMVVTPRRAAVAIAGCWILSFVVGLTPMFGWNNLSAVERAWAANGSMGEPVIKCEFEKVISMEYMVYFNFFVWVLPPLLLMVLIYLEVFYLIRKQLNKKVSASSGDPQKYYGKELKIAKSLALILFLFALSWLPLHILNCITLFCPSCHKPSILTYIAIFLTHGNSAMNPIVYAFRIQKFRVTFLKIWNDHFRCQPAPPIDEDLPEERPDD

[3] = target: T4, Adenosine receptor (Homo sapiens) (UniProt P30542+P29275+P0DMS8+P29274)
[4] = target: T4, Adenosine receptor (Homo sapiens); remark: listed apart in the source
[5] = target: T1, Adenosine A2 receptor (Homo sapiens); conditions: brain; remark: listed apart in the source
Adenosine receptor A2a [6] = target: T5, Adenosine receptor A2a (Cavia porcellus, UniProt P46616); test: biochemical
Description: (§1) Antagonist binding of N6-cyclohexyl-[3H]-adenosine to guinea pig brain

Adenosine receptor [7] = target: T6, Adenosine receptor (Rattus norvegicus, UniProt P29276+P25099+P30543+P28647); assay type: functional
Adenosine receptor [8] = target: T6, Adenosine receptor; test: Antagonist binding of rN6-cyclohexyl-[3H]adenosine to rat brain; assay type: functional
Adenosine receptor [9] = target: T6, Adenosine receptor
Description: Antagonist binding of L-N6-phenyl-isopropyl)-[3H]adenosine to rat fat

[10] = target: T3, Adenosine receptor A1 (Homo sapiens); test: Affinity constant for inhibition of A1 receptor control of adenylate cyclase in adipocytes, heart and brain cells; Inactive; assay type: functional, cell-based
[11] = target: T1, Adenosine A2 receptor (Homo sapiens); test: Affinity constant for A2 receptor control of adenylate cyclase in adipocytes, heart and brain cells; Inactive; assay type: functional, cell-based
Adenosine receptor A2a [12] = target: T5, Adenosine receptor A2a; test: biochemical; remark: listed apart in the source
Description: as §1

T5 sequence (P46616 whole entry): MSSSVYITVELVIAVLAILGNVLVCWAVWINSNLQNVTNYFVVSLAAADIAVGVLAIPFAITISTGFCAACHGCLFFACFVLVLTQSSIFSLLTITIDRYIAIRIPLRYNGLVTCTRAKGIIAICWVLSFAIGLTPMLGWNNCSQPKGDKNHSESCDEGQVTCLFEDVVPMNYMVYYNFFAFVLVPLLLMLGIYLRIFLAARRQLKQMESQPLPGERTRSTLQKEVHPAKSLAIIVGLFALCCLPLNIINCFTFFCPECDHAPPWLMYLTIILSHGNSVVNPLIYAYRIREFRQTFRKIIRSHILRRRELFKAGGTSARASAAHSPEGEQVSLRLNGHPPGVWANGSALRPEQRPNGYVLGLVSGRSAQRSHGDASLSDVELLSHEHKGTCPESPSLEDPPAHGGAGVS
T4 sequence (P0DMS8 whole entry, looked up, one chain of several): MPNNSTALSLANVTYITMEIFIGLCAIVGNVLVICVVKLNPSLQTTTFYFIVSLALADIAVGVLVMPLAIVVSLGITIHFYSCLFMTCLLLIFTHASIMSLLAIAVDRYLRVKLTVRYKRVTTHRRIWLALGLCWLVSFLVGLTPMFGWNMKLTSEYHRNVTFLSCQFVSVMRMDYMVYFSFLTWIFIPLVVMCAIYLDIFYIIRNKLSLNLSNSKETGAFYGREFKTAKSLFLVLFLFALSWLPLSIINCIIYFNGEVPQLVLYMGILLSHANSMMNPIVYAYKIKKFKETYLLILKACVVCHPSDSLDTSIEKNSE
T4 sequence (P29274 whole entry, looked up, one chain of several): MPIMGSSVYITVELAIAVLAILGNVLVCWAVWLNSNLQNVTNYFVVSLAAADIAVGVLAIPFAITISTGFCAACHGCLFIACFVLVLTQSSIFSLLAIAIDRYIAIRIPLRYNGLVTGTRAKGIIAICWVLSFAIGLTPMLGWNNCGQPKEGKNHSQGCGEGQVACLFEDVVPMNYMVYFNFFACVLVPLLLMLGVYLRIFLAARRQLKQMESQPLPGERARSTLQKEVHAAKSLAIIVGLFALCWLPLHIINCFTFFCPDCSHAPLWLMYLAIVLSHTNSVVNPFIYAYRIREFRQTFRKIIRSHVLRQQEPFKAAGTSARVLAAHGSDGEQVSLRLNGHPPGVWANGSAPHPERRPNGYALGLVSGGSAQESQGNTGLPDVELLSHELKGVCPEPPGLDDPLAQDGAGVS
T4 sequence (P29275 whole entry, looked up, one chain of several): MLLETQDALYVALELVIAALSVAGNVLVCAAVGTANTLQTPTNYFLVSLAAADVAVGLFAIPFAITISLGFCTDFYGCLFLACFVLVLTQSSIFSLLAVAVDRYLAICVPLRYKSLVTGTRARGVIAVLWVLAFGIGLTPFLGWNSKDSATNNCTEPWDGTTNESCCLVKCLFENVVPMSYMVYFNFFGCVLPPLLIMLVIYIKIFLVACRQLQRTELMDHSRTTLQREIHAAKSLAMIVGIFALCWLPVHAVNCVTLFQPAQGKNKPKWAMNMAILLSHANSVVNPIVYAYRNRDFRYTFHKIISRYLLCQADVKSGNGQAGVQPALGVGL

Row | Compound | Affinity constant [1] [µM] | Ki (Adenosine receptor A1) [nM] | Affinity constant [2] [µM] | Affinity constant [3] | Ki (Adenosine receptor A2a [6]) [nM] | further results
1 | CSC[C@H]1O[C@@H](n2cnc3c(N)ncnc32)[C@H](O)[C@@H]1O | 10 | – | – | – | – | –
2 | Cn1c(=O)c2c(ncn2C)n(C)c1=O [CAFFEINE] | 30 | 130000 | 30 | inactive | – | –
3 | Nc1nc(Cl)nc2c1ncn2[C@@H]1O[C@H](CO)[C@@H](O)[C@H]1O | – | 25 | 0.01 | – | 8 | Affinity constant [4]: inactive; Affinity constant [5]: 5 µM
4 | OC[C@H]1O[C@@H](n2cnc3c(Nc4ccccc4)ncnc32)[C@H](O)[C@@H]1O | 50 | – | 0.003 | inactive | – | –
5 | OC[C@H]1O[C@@H](n2cnc3c(NCc4ccccc4)ncnc32)[C@H](O)[C@@H]1O | 80 | – | 0.2 | inactive | – | –
6 | C[C@@H](Cc1ccccc1)Nc1ncnc2c1ncn2[C@@H]1O[C@H](CO)[C@@H](O)[C@H]1O [(S)-PIA] | 100 | 8 | 0.2 | inactive | 130 | –
7 | Nc1ncnc2c1ncn2[C@@H]1O[C@H](C(=O)NC2CC2)[C@@H](O)[C@H]1O | – | – | – | – | 8 | –
8 | CC(C)Cn1c(=O)n(C)c(=O)c2nc[nH]c21 [ISOBUTYLMETHYLXANTHINE] | 5 | – | 2 | inactive | – | Ki (Adenosine receptor [7]): 0.8 µM; Ki (Adenosine receptor [8]): 3 µM; Ki (Adenosine receptor [9]): 20 µM
9 | C[C@@H]1O[C@H](n2cnc3c(N)ncnc32)C[C@H]1O | – | – | – | 2 µM | – | Affinity constant [10]: inactive; Affinity constant [11]: inactive
10 | CNc1ncnc2c1ncn2[C@@H]1O[C@H](CO)[C@@H](O)[C@H]1O | 80 | – | 0.1 | – | – | –
11 | CCNC(=O)[C@H]1O[C@@H](n2cnc3c(N)ncnc32)[C@H](O)[C@@H]1O | – | – | 0.1 | – | – | –
12 | CC(C)Cn1c(=O)n(C)c(=O)c2[nH]cnc21 [ISOBUTYLMETHYLXANTHINE] | – | 7000 | – | – | 8000 | –
13 | Cn1c(=O)c2[nH]c(-c3ccccc3)nc2n(C)c1=O [8-PHENYL THEOPHYLLINE] | – | – | – | – | 400 | –
14 | OC[C@H]1O[C@@H](n2cnc3c(NC4CCCCC4)ncnc32)[C@H](O)[C@@H]1O | 30 | 2.5 | 0.003 | inactive | – | –
15 | C[C@H](Cc1ccccc1)Nc1ncnc2c1ncn2[C@@H]1O[C@H](CO)[C@@H](O)[C@H]1O [(R)-PIA] | 30 | 0.25 | 0.003 | inactive | – | Ki (Adenosine receptor A2a [12]): 3.3 nM
